How the values were obtained:
[1] = tested on: rat MT-I cRNA; assay: cell-free ribozyme cleavage of labeled rat MT-I cRNA; assay type: biochemical; conditions: for cleavage activity on rat MT-I cRNA: cell-free, excess unlabeled ribozyme, 37° C., 16 hours
Excerpt: (§1) Bluescript plasmids containing the rat MT cDNA (pBSMT-I and pBSMT-2) were constructed as described above. A plasmid containing the mouse MT-I (pSP-MT-I) and a second plasmid (SDF 102.C1) containing MT-II cDNA (Durnam et al., 1980, Proc. Natl. Acad. Sci. USA 77:6511-6515) were linearized with HindIII and in vitro transcribed into labeled MT cRNAs with [α-32P]UTP, T3 RNA polymerase (Promega, Madison, Wis.), and the Maxiscript In Vitro Transcription Kit (Ambion, Inc, Austin, Tex.). Ribozymes were generated as unlabeled molecules from pRz1-2 and pRz4-9 using either the T3 or T7 promoter of the pClneo vectors, and unlabeled nucleoside triphosphates.
(§2) To test ribozyme activity, radiolabeled rat metallothionein cRNAs were synthesized by in vitro transcription from linearized plasmids and incubated with an excess of unlabeled ribozymes at 37° C. for 16 hours. The enzymatic activity was terminated with an equal volume of stop buffer. After denaturing at 95° C. for 2 minutes, the cleavage products were separated in a 6% polyacrylamide/8M urea gel, dried and exposed to X-ray film to obtain autoradiograms. The uncut rat MT-I (poly A) and MT-II (poly A) molecules were 435 nucleotides and 350 nucleotides, respectively. Rz1-2-mediated cleavage fragments of rat MT-I(poly A) were 360 nucleotides and 115 nucleotides in length. The cleavage fragments produced by Rz4-9 activity on MT-II(polyA) were 260 nucleotides and 90 nucleotides in length.
(§3) Initial experiments were designed to determine effective and linear catalytic temperature ranges for Rz1-2 and Rz4-9. A ribozyme and a labeled substrate were mixed in a 1:1 molar ratio in a 10 μL reaction mixture composed of 40 mM Tris-HCl (pH 7.5) and 20 mM MgCl2 (previously determined to be optimal for cleavage activity). The reaction mixture was denatured for 2 minutes at 95° C. and then snapcooled on ice for 5 minutes. Catalytic reactions were conducted at 25° C., 37° C., and 50° C. for 1, 3, or 16 hours. […] An excess of unlabeled anti-MT Rzs (Rz1-2 and Rz4-9) and their corresponding mutants (Rz2-6 and Rz3-3) were mixed with labeled rat or mouse MT-I or MT-II cRNA and incubated at 37° C. for 16 hours. At the end of these experiments, all catalytic reactions were terminated with an equal volume of stop buffer (10 mM EDTA, 90% formamide, 0.1% bromophenol blue, and 0.1% xylene cyanol). After denaturing at 95° C. for 2 minutes, the cleavage products were separated in a 6% polyacrylamide/8M urea gel, dried, and exposed to X-ray film to obtain autoradiograms. The sizes of the uncut rat MT-I (poly A) and MT-II (poly A) molecules were 435 nucleotides and 350 nucleotides, respectively. Rz1-2-mediated cleavage fragments of rat MT-I(poly A) were of 360 nucleotides and 115 nucleotides in length and those produced by Rz4-9 activity on MT-II(polyA) were 260 nucleotides and 90 nucleotides. Incubation with the mutant Rzs, Rz2-6 or Rz3-3, produced no products.
(§4) Hammerhead ribozymes were tested for specific endonuclease activity under cell-free conditions. In vitro transcription from pBSMT-I and pBSMT-II using 2.5 μg HindIII linearized plasmid and T3 RNA polymerase yielded 5 μg of rat MT-I and MT-II cRNA. In parallel, mouse MT-I and MT-II cRNA were generated from plasmids containing mouse MT sequences (pSP-MT-I). These molecules containing the entire metallothionein coding region and a poly (A) tail 435 nucleotides (rat MT-I cRNA), 350 nucleotides (rat MT-II cRNA), 380 nucleotides ([…]) and 460 nucleotides ([…]) in length. They were used as substrate for the ribozyme reactions. […] Similar sequence specificity data were obtained for mouse metallothionein cRNAs. All cleavage products were of the predicted sizes.

[2] = tested on: rat MT-II cRNA; assay: cell-free ribozyme cleavage of labeled rat MT-II cRNA; assay type: biochemical; conditions: for cleavage activity on rat MT-II cRNA: cell-free, excess unlabeled ribozyme, 37° C., 16 hours
Excerpt: as §1, §2, §3, §4

[3] = cell-free cleavage, 1:1 molar ratio

Row | Substance | optimal Mg^2+ for ribozyme activity ([1]; cell-free cleavage) [mM] | period over which ribozyme remained active ([1]; cell-free cleavage) [h] | temperature at which ribozyme is most effective ([1]; cell-free cleavage) [°C] | temperature range over which ribozyme is active [1, 3] | cleavage activity on rat MT-I cRNA [1] | cleavage activity on rat MT-II cRNA [2] | optimal Mg^2+ for ribozyme activity ([2]; cell-free cleavage) [mM] | period over which ribozyme remained active ([2]; cell-free cleavage) [h] | temperature at which ribozyme is most effective ([2]; cell-free cleavage) [°C] | temperature range over which ribozyme is active [2, 3]
1 | Rz1-2: hammerhead ribozyme, SEQ ID NO:6, designed to cleave mouse and rat MT-I mRNA (GCGCCUUUGCACUGAUGAGUCCGUGAGGACGAAACACAGCCCU; listed as RNA, chemistry not given here) | 20 | 16 | 37 | 25-50 °C | active | no activity |  |  |  | 
2 | Rz4-9: hammerhead ribozyme, SEQ ID NO:7, designed to cleave MT-II mRNA (CCUCUUUGCACUGAUGAGUCCGUGAGGACGAAAUGCAGCCCU; listed as RNA, chemistry not fully specified) |  |  |  |  | did not mediate rat MT-I cRNA cleavage | cut only rat MT-II cRNAs | 20 | 16 | 37 | 25-50 °C
